In the supplement of paper PMC10627819:

Experiments:
S. aureus Newman [1] = experiment: fitness (endpoint OD595 vs no drug) (fraction); higher = more growth; details: main component drawn
Method in brief: (§1)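 Background-subtracted growth curves were the basis for fitness, taken as the optical density at entry into stationary phase over the robust mean of no-drug control wells. A cap of 1 was applied. The curves came from OD595 readings every 30 min for 14 h at 37 °C, in 384-well plates seeded at OD595 0.01 with 30 µl, or 55 µl for S. pneumoniae.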

S. aureus Newman [2] = experiment: Bliss interaction score (quartile over a dose matrix) (fitness difference); higher = more antagonism (negative = synergy)
Method in brief: (§2)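 Combination data were used to infer fitness under each single drug. Fitness is the OD595 at entry into stationary phase divided by the robust mean of the plate's no-drug wells, with a cap of 1. The Bliss score is the observed minus the expected product fitness, summarised by quartiles over technical, biological and donor/recipient replicates.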

S. aureus DSM 20231 = experiment: as above
Method in brief: as §2

S. pneumoniae D39V [3] = experiment: as above
Method in brief: as §2

B. subtilis 168 [4] = experiment: as above
Method in brief: as §2

S. pneumoniae D39V [5] = experiment: fitness (endpoint OD595 vs no drug) (fraction); higher = more growth
Method in brief: as §1

B. subtilis 168 [6] = experiment: as above
Method in brief: as §1
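For Bliss interaction score (quartile over a dose matrix) in this document: first quartile when negative (synergy) and third quartile when positive (antagonism).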

CC[C@H](C)[C@H](N)C1=N[C@H](C(=O)N[C@@H](CC(C)C)C(=O)N[C@H](CCC(=O)O)C(=O)N[C@H](C(=O)N[C@H]2CCCCNC(=O)[C@H](CC(N)=O)NC(=O)[C@@H](CC(=O)O)NC(=O)[C@H](Cc3cnc[nH]3)NC(=O)[C@@H](Cc3ccccc3)NC(=O)[C@H]([C@@H](C)CC)NC(=O)[C@@H](CCCN)NC2=O)[C@@H](C)CC)CS1 [Bacitracin] + Cn1nnc(-c2ccc(-c3ccc(N4C[C@H](CO)OC4=O)cc3F)cn2)n1 [Tedizolid]
fitness, S. aureus Newman [1]
Details	first compound 18.75 µg/mL	first compound 37.5 µg/mL	first compound 75 µg/mL
partner 0.0625 µg/mL	0.646	0.0796	0.0039
partner 0.125 µg/mL	–	0.0327	0.0056
partner 0.25 µg/mL	0.0222	0.0202	0.0046

main component drawn
Details	Bliss interaction score
B. subtilis 168 [4]	-0.0855
S. aureus DSM 20231	-0.0663
S. aureus Newman [2]	-0.222
S. pneumoniae D39V [3]	0.12

CC[C@H](C)[C@H](N)C1=N[C@H](C(=O)N[C@@H](CC(C)C)C(=O)N[C@H](CCC(=O)O)C(=O)N[C@H](C(=O)N[C@H]2CCCCNC(=O)[C@H](CC(N)=O)NC(=O)[C@@H](CC(=O)O)NC(=O)[C@H](Cc3cnc[nH]3)NC(=O)[C@@H](Cc3ccccc3)NC(=O)[C@H]([C@@H](C)CC)NC(=O)[C@@H](CCCN)NC2=O)[C@@H](C)CC)CS1 [Bacitracin] + O=C(N[C@H](CO)[C@H](O)c1ccc([N+](=O)[O-])cc1)C(Cl)Cl [Chloramphenicol]
fitness, S. aureus Newman [1]
Details	first compound 18.75 µg/mL	first compound 37.5 µg/mL	first compound 75 µg/mL
partner 0.75 µg/mL	0.589	0.182	0.0093
partner 1.5 µg/mL	0.38	0.0293	0.0143
partner 3 µg/mL	0.0184	0.0086	0.0146

main component drawn
Details	Bliss interaction score
B. subtilis 168 [4]	-0.106
S. aureus DSM 20231	-0.0262
S. aureus Newman [2]	-0.0971
S. pneumoniae D39V [3]	-0.0459

CC[C@H](C)[C@H](N)C1=N[C@H](C(=O)N[C@@H](CC(C)C)C(=O)N[C@H](CCC(=O)O)C(=O)N[C@H](C(=O)N[C@H]2CCCCNC(=O)[C@H](CC(N)=O)NC(=O)[C@@H](CC(=O)O)NC(=O)[C@H](Cc3cnc[nH]3)NC(=O)[C@@H](Cc3ccccc3)NC(=O)[C@H]([C@@H](C)CC)NC(=O)[C@@H](CCCN)NC2=O)[C@@H](C)CC)CS1 [Bacitracin] + CN[C@H](CC(C)C)C(=O)N[C@H]1C(=O)N[C@@H](CC(N)=O)C(=O)N[C@H]2C(=O)N[C@H]3C(=O)N[C@H](C(=O)N[C@H](C(=O)O)c4cc(O)cc(O)c4-c4cc3ccc4O)[C@H](O)c3ccc(c(Cl)c3)Oc3cc2cc(c3O[C@@H]2O[C@H](CO)[C@@H](O)[C@H](O)[C@H]2O[C@H]2C[C@](C)(N)[C@H](O)[C@H](C)O2)Oc2ccc(cc2Cl)[C@H]1O [Vancomycin]
fitness, S. aureus Newman [1]
Details	first compound 18.75 µg/mL	first compound 37.5 µg/mL	first compound 75 µg/mL
partner 0.1875 µg/mL	0.735	0.183	0.0338
partner 0.375 µg/mL	0.723	0.135	0.0309
partner 0.75 µg/mL	0.712	0.159	0.0262

main component drawn
Details	Bliss interaction score
B. subtilis 168 [4]	0.0708
S. aureus DSM 20231	0.0843
S. aureus Newman [2]	-0.0422
S. pneumoniae D39V [3]	-0.0651

CC(=O)NC[C@H]1CN(c2ccc(N3CCOCC3)c(F)c2)C(=O)O1 [Linezolid] + CCC(C)C1C(=O)NC(=C)C(=O)NC(C(=O)NC(CSCC(C(=O)N1)NC(=O)/C(=C/C)/NC(=O)C(C(C)CC)N)C(=O)NC2C(SCC(NC(=O)CNC(=O)C3CCCN3C2=O)C(=O)NC(CCCCN)C(=O)NC4C(SCC(NC(=O)CNC(=O)C(NC(=O)C(NC(=O)C(NC(=O)CNC4=O)C)CC(C)C)CCSC)C(=O)NC(CC(=O)N)C(=O)NC(CCSC)C(=O)NC(CCCCN)C(=O)NC5C(SCC6C(=O)NC(C(=O)NC(CSC(C(C(=O)N6)NC(=O)C(NC5=O)C)C)C(=O)NC(CO)C(=O)NC(C(C)CC)C(=O)NC(CC7=CN=CN7)C(=O)NC(C(C)C)C(=O)NC(=C)C(=O)NC(CCCCN)C(=O)O)CC8=CN=CN8)C)C)C)CC(C)C [Nisin]
main component drawn
Details	fitness
B. subtilis 168 [6], first compound 0.125 µg/mL, partner 0.5 µg/mL	0.503
B. subtilis 168 [6], first compound 0.125 µg/mL, partner 1 µg/mL	0.421
B. subtilis 168 [6], first compound 0.125 µg/mL, partner 2 µg/mL	0.111
B. subtilis 168 [6], first compound 0.25 µg/mL, partner 0.5 µg/mL	0.167
B. subtilis 168 [6], first compound 0.25 µg/mL, partner 1 µg/mL	0.0862
B. subtilis 168 [6], first compound 0.25 µg/mL, partner 2 µg/mL	0.0407
S. pneumoniae D39V [5], first compound 0.105 µg/mL, partner 1.6 µg/mL	0.0032
S. pneumoniae D39V [5], first compound 0.105 µg/mL, partner 3.2 µg/mL	0.0264
S. pneumoniae D39V [5], first compound 0.105 µg/mL, partner 6.4 µg/mL	0.015
S. pneumoniae D39V [5], first compound 0.2 µg/mL, partner 0.4275 µg/mL	0.804
S. pneumoniae D39V [5], first compound 0.2 µg/mL, partner 0.855 µg/mL	0.657
S. pneumoniae D39V [5], first compound 0.2 µg/mL, partner 1.71 µg/mL	0.0574
S. pneumoniae D39V [5], first compound 0.21 µg/mL, partner 1.6 µg/mL	0
S. pneumoniae D39V [5], first compound 0.21 µg/mL, partner 3.2 µg/mL	0.0008
S. pneumoniae D39V [5], first compound 0.21 µg/mL, partner 6.4 µg/mL	0
S. pneumoniae D39V [5], first compound 0.4 µg/mL, partner 0.4275 µg/mL	0.63
S. pneumoniae D39V [5], first compound 0.4 µg/mL, partner 0.855 µg/mL	0.314
S. pneumoniae D39V [5], first compound 0.4 µg/mL, partner 1.71 µg/mL	0.0313
S. pneumoniae D39V [5], first compound 0.42 µg/mL, partner 1.6 µg/mL	0.0074
S. pneumoniae D39V [5], first compound 0.42 µg/mL, partner 3.2 µg/mL	0.0019
S. pneumoniae D39V [5], first compound 0.42 µg/mL, partner 6.4 µg/mL	0.0156
S. pneumoniae D39V [5], first compound 0.8 µg/mL, partner 0.4275 µg/mL	0.132
S. pneumoniae D39V [5], first compound 0.8 µg/mL, partner 0.855 µg/mL	0.0545
S. pneumoniae D39V [5], first compound 0.8 µg/mL, partner 1.71 µg/mL	0.0571

fitness, B. subtilis 168 [6], one replicate, main component drawn
Details	first compound 0.0625 µg/mL	first compound 0.125 µg/mL	first compound 0.25 µg/mL	first compound 0.5 µg/mL
partner 0.5 µg/mL	0.875	–	–	0.0342
partner 1 µg/mL	0.743	–	–	0.0597
partner 1.25 µg/mL	–	0.734	0.502	0.074
partner 1.6 µg/mL	–	0.411	0.0282	0.027
partner 2 µg/mL	0.547	–	–	0.0406
partner 2.5 µg/mL	–	0.187	0.118	0.0568
partner 3.2 µg/mL	–	0.0219	0.0214	0.042
partner 4 µg/mL	–	0.038	0.0369	0.023
partner 5 µg/mL	–	0.0523	0.0422	0.0652
partner 6.4 µg/mL	–	0.0537	0.0573	0.0278
partner 8 µg/mL	–	0.0224	0.0244	0.019
partner 16 µg/mL	–	0.0095	0.0006	0.0145

main component drawn
Details	Bliss interaction score
B. subtilis 168 [4]	-0.0535
S. aureus DSM 20231	-0.0557
S. aureus Newman [2]	-0.0621
S. pneumoniae D39V [3]	-0.0674

CC(=O)NC[C@H]1CN(c2ccc(N3CCOCC3)c(F)c2)C(=O)O1 [Linezolid] + CN(C)c1cc(NC(=O)CNC(C)(C)C)c(O)c2c1C[C@H]1C[C@H]3[C@H](N(C)C)C(O)=C(C(N)=O)C(=O)[C@@]3(O)C(O)=C1C2=O [Tigecycline]
Details	fitness
B. subtilis 168 [6], first compound 0.125 µg/mL, partner 0.039 µg/mL	0.542
B. subtilis 168 [6], first compound 0.125 µg/mL, partner 0.078 µg/mL	0.537
B. subtilis 168 [6], first compound 0.125 µg/mL, partner 0.156 µg/mL	0.543
B. subtilis 168 [6], first compound 0.25 µg/mL, partner 0.078 µg/mL	0.0754
B. subtilis 168 [6], first compound 0.25 µg/mL, partner 0.156 µg/mL	0.0704
B. subtilis 168 [6], first compound 0.5 µg/mL, partner 0.039 µg/mL	0.0624
B. subtilis 168 [6], first compound 0.5 µg/mL, partner 0.078 µg/mL	0.0638
B. subtilis 168 [6], first compound 0.5 µg/mL, partner 0.156 µg/mL	0.0364
S. pneumoniae D39V [5], first compound 0.105 µg/mL, partner 0.65 µg/mL	0.829
S. pneumoniae D39V [5], first compound 0.105 µg/mL, partner 1.3 µg/mL	0.785
S. pneumoniae D39V [5], first compound 0.105 µg/mL, partner 2.6 µg/mL	0.801
S. pneumoniae D39V [5], first compound 0.2 µg/mL, partner 0.65 µg/mL	0.712
S. pneumoniae D39V [5], first compound 0.2 µg/mL, partner 1.3 µg/mL	0.694
S. pneumoniae D39V [5], first compound 0.2 µg/mL, partner 2.6 µg/mL	0.692
S. pneumoniae D39V [5], first compound 0.21 µg/mL, partner 0.65 µg/mL	0.718
S. pneumoniae D39V [5], first compound 0.21 µg/mL, partner 1.3 µg/mL	0.71
S. pneumoniae D39V [5], first compound 0.21 µg/mL, partner 2.6 µg/mL	0.66
S. pneumoniae D39V [5], first compound 0.4 µg/mL, partner 0.65 µg/mL	0.588
S. pneumoniae D39V [5], first compound 0.4 µg/mL, partner 1.3 µg/mL	0.582
S. pneumoniae D39V [5], first compound 0.4 µg/mL, partner 2.6 µg/mL	0.552
S. pneumoniae D39V [5], first compound 0.42 µg/mL, partner 0.65 µg/mL	0.393
S. pneumoniae D39V [5], first compound 0.42 µg/mL, partner 1.3 µg/mL	0.366
S. pneumoniae D39V [5], first compound 0.42 µg/mL, partner 2.6 µg/mL	0.323
S. pneumoniae D39V [5], first compound 0.8 µg/mL, partner 0.65 µg/mL	0.252
S. pneumoniae D39V [5], first compound 0.8 µg/mL, partner 1.3 µg/mL	0.273
S. pneumoniae D39V [5], first compound 0.8 µg/mL, partner 2.6 µg/mL	0.275

fitness, B. subtilis 168 [6], one replicate
Details	partner 0.039 µg/mL	partner 0.078 µg/mL	partner 0.125 µg/mL	partner 0.156 µg/mL	partner 0.25 µg/mL	partner 0.5 µg/mL
first compound 0.0625 µg/mL	0.872	0.848	–	0.896	–	–
first compound 0.125 µg/mL	–	–	≥ 1	–	0.871	0.909
first compound 0.25 µg/mL	–	–	0.906	–	0.839	0.782
first compound 0.5 µg/mL	–	–	0.214	–	0.0983	0.111

Details	Bliss interaction score
B. subtilis 168 [4]	0.11
S. aureus DSM 20231	-0.0817
S. aureus Newman [2]	-0.0561
S. pneumoniae D39V [3]	-0.158
